Test results published in ChEMBL document CHEMBL3870347, “Antimycobacterial activity of novel hydrazide-hydrazone derivatives with 2H-chromene and coumarin scaffold” (Bioorg Med Chem Lett, 2017).
In brackets after ≈: the same amount, converted by molar mass. Counter-ions that a name gives are not always drawn.

Columns and labels:
[1] = tested on: Mycobacterium tuberculosis; test: Antimycobacterial activity against Mycobacterium tuberculosis H37Rv after 45 days; format: functional
[2] = Cytotoxicity against HEK293T cells assessed as decrease in cell viability after 72 hrs by MTT assay; format: toxicity, cell-based, HEK-293T; conditions: human
[3] = Selectivity index, ratio of IC50 for HEK293T cells to MIC for Mycobacterium tuberculosis H37Rv; format: toxicity, cell-based, HEK-293T; conditions: human, read-out: Selectivity Index

## CC1Oc2ccccc2C=C1/C=N/NC(=O)c1ccccc1 (centres undefined)
[1]
  MIC: 6.84 µM (≈ 2 µg/mL)
[2]
  IC50 at 72 h: 23.3 µM

## CC1Oc2ccccc2C=C1/C=N/NC(=O)c1ccncc1 (centres undefined)
[1]
  MIC: 0.17 µM (≈ 0.0499 µg/mL)
[2]
  IC50 at 72 h: 76.3 µM
[3]
  selectivity ratio: 449

## CC1Oc2ccccc2C=C1/C=N/NC(=O)c1ccc(O)cc1 (centres undefined)
[1]
  MIC: 0.64 µM (≈ 0.197 µg/mL)
[2]
  IC50 at 72 h: 48.8 µM
[3]
  selectivity ratio: 76.2

## O=C(N/N=C/c1c(Cl)c2ccccc2oc1=O)c1ccc(F)cc1
[1]
  MIC: 1.45 µM (≈ 0.5 µg/mL)
[2]
  IC50 at 72 h: 26.2 µM

## CC1Oc2ccccc2C=C1/C=N/NC(=O)c1ccc(Cl)cc1 (centres undefined)
[1]
  MIC: > 6.12 µM

## O=C(N/N=C/C1=Cc2ccccc2OC1c1ccccc1)c1ccc(F)cc1 (centres undefined)
[1]
  MIC: 1.34 µM (≈ 0.499 µg/mL)
[2]
  IC50 at 72 h: 30.9 µM

## CC1Oc2ccccc2C=C1/C=N/NC(=O)c1cccs1 (centres undefined)
[1]
  MIC: > 6.7 µM

## O=C(N/N=C/C1=Cc2ccccc2OC1c1ccccc1)c1cccs1 (centres undefined)
[1]
  MIC: > 5.54 µM

## COc1ccc(C(=O)N/N=C/C2=Cc3ccccc3OC2)cc1
[1]
  MIC: 6.48 µM (≈ 2 µg/mL)
[2]
  IC50 at 72 h: 36 µM

## O=C(N/N=C/c1c(Cl)c2ccccc2oc1=O)c1ccc(O)cc1
[1]
  MIC: 5.83 µM (≈ 2 µg/mL)
[2]
  IC50 at 72 h: 33.1 µM

## O=C(N/N=C/C1=Cc2ccccc2OC1c1ccccc1)c1ccc(Cl)cc1 (centres undefined)
[1]
  MIC: > 5.14 µM
[2]
  IC50 at 72 h: 13.2 µM

## COc1ccc(C(=O)N/N=C/C2=Cc3ccccc3OC2c2ccccc2)cc1 (centres undefined)
[1]
  MIC: 0.13 µM (≈ 0.05 µg/mL)
[2]
  IC50 at 72 h: 90.7 µM
[3]
  selectivity ratio: 697

## O=C(N/N=C/c1c(Cl)c2ccccc2oc1=O)c1ccccc1
[1]
  MIC: 6.12 µM (≈ 2 µg/mL)
[2]
  IC50 at 72 h: 28.6 µM

## COc1ccc(C(=O)N/N=C/C2=Cc3ccccc3OC2C)cc1 (centres undefined)
[1]
  MIC: 6.2 µM (≈ 2 µg/mL)

## O=C(N/N=C/c1c(Cl)c2ccccc2oc1=O)c1ccncc1
[1]
  MIC: 6.1 µM (≈ 2 µg/mL)
[2]
  IC50 at 72 h: 12.6 µM

## O=C(N/N=C/C1=Cc2ccccc2OC1)c1ccco1
[1]
  MIC: 0.74 µM (≈ 0.199 µg/mL)
[2]
  IC50 at 72 h: 47.3 µM
[3]
  selectivity ratio: 63.9

## CC1Oc2ccccc2C=C1/C=N/NC(=O)c1ccco1 (centres undefined)
[1]
  MIC: 0.18 µM (≈ 0.0508 µg/mL)
[2]
  IC50 at 72 h: 21.2 µM
[3]
  selectivity ratio: 118

## Cc1nnsc1C(=O)N/N=C/C1=Cc2ccccc2OC1c1ccccc1 (centres undefined)
[1]
  MIC: 0.53 µM (≈ 0.2 µg/mL)
[2]
  IC50 at 72 h: 30.2 µM
[3]
  selectivity ratio: 56.9

## O=C(N/N=C/C1=Cc2ccccc2OC1)c1ccc(Cl)cc1
[1]
  MIC: 6.39 µM (≈ 2 µg/mL)

## O=C(N/N=C/C1=Cc2ccccc2OC1c1ccccc1)c1ccco1 (centres undefined)
[1]
  MIC: 0.15 µM (≈ 0.0517 µg/mL)
[2]
  IC50 at 72 h: 11.9 µM
[3]
  selectivity ratio: 79.4

## Cc1nnsc1C(=O)N/N=C/c1c(Cl)c2ccccc2oc1=O
[1]
  MIC: 0.67 µM (≈ 0.234 µg/mL)
[2]
  IC50 at 72 h: 30.2 µM
[3]
  selectivity ratio: 45

## O=C(N/N=C/C1=Cc2ccccc2OC1)c1cccs1
[1]
  MIC: 7.03 µM (≈ 2 µg/mL)
[2]
  IC50 at 72 h: 22.1 µM

## CC[C@@H](CO)NCCN[C@@H](CC)CO [ETHAMBUTOL HYDROCHLORIDE]
[1]
  MIC: 7.64 µM

## NNC(=O)c1ccncc1 [ISONIAZID]
[1]
  MIC: 1.45 µM (≈ 0.199 µg/mL)
